Reference: US12692529B2, “Quantitative screen for the assessment of inter-individual variability in drug metabolism by the human gut microbiome” (The Trustees of Princeton University, priority 2020, dated 2026)

What was measured:
[1] = tested on: ex vivo cultures of donor gut microbiome (BG medium); assay: MDMQ-Screen 20-donor screen: drug depletion and metabolite production in ex vivo cultures, targeted metabolomics by HPLC-HRMS; settings: for MDM in drug depletion across donors / MDM in metabolite production across donors / MDM (microbiome-derived metabolism) across donors: 20 donors, BG medium, drug 33 μM, 24-hour incubation; for MDM in drug depletion across donors: significant if FDR p<0.01 and depletion >50% vs controls; for MDM in metabolite production across donors: significant if FDR p<0.01 vs all three controls; for Pearson correlation coefficient of drug signal and sum of known metabolite signals (drug depletion vs metabolite production): all donor-drug ex vivo samples, known (quantified) metabolites only
[2] = tested on: ex vivo cultures of donor gut microbiome (BG medium); assay: Untargeted metabolomics with molecular ion networking for new metabolite discovery in the 20-donor screen; type: in vitro ADME, human
Procedure: In order to extract all features in a given sample, a batch recursive feature extraction method for small molecules and peptides within Profinder 8 (Agilent) can be used. The following settings in the method were changed from default: compound ion count threshold set to two ions, alignment retention time tolerance set to 0.2 min, minimum MFE score set to 90, minimum file prevalence set to 2, expected retention time set to ±1 min, retention time contribution to matching score set to 90, expected MS1 mass variation set to 10 ppm, expected retention time tolerance set to 0.2 min, absolute height threshold for EIC integration set to 2500 counts, and final absolute height threshold set to 5000. The resulting feature abundances were then analyzed in MATLAB. Any sample whose internal standard AUC is less than 10^6 was removed. Hypothesis testing was then performed using similar statistical methods as for metabolite production in the targeted metabolomics, except that the multiple hypothesis correction of Storey (Storey, 2002) was used in place of the Benjamini-Hochberg method and require a fold-change cut-off of two relative to all controls. […] All ions already quantified in the screen and all features that are statistically significant for more than one drug are removed. […]

| Structure (SMILES) | MDM in drug depletion across donors [1] | MDM in metabolite production across donors [1] | other results |
| --- | --- | --- | --- |
| CCCCCOC(=O)Nc1nc(=O)n([C@@H]2O[C@H](C)[C@@H](O)[C@H]2O)cc1F [capecitabine] | variable | variable | – |
| Cc1nc2n(c(=O)c1CCN1CCC(c3noc4cc(F)ccc34)CC1)CCCC2 [risperidone] | consistently positive | – | – |
| CCCCC(C)(O)C/C=C/[C@H]1[C@H](O)CC(=O)[C@@H]1CCCCCCC(=O)OC (mixture of isomers) [misoprostol] | consistently positive | – | – |
| CC(C)/N=c1\cc2n(-c3ccc(Cl)cc3)c3ccccc3nc-2cc1Nc1ccc(Cl)cc1 [clofazimine] | variable | variable | – |
| CC(=O)N1CCN(c2ccc(OCC3COC(Cn4ccnc4)(c4ccc(Cl)cc4Cl)O3)cc2)CC1 (stereo not drawn) [ketoconazole] | – | – | MDM (microbiome-derived metabolism) across donors [1]: consistently negative |
| COc1c(C)c2c(c(O)c1C/C=C(\C)CCC(=O)OCCN1CCOCC1)C(=O)OC2 [mycophenolate mofetil] | variable | variable | – |
| O=C1CN=C(c2ccccc2Cl)c2cc([N+](=O)[O-])ccc2N1 [clonazepam] | consistently positive | consistently positive | – |
| COC(=O)C1=C(C)NC(C)=C(C(=O)OCCN(C)Cc2ccccc2)C1c1cccc([N+](=O)[O-])c1 (stereo not drawn) [nicardipine] | – | – | Pearson correlation coefficient of drug depletion and metabolite production after inclusion of metabolites discovered by untargeted metabolomics ([1]; after inclusion of 11 additional metabolites, FDR corrected p=0.0102): −0.6; Pearson correlation coefficient of drug signal and sum of known metabolite signals (drug depletion vs metabolite production) [1]: −0.22; number of additional metabolites detected by the untargeted metabolomics pipeline [2]: 11 |
| Cc1ccc(C(=O)c2cc(O)c(O)c([N+](=O)[O-])c2)cc1 [tolcapone] | – | consistently positive | – |
| Cc1cccc(Nc2ccncc2S(=O)(=O)NC(=O)NC(C)C)c1 [torsemide] | – | – | MDM (microbiome-derived metabolism) across donors [1]: consistently negative |
| C[C@]12CCC(=O)C=C1CC[C@@H]1[C@@H]2[C@@H](O)C[C@@]2(C)[C@H]1CC[C@]2(O)C(=O)CO [hydrocortisone] | variable | – | – |
| CC[C@H](C)C(=O)O[C@H]1C[C@@H](C)C=C2C=C[C@H](C)[C@H](CC[C@@H]3C[C@@H](O)CC(=O)O3)[C@H]21 [lovastatin] | variable | variable | – |
| CC(=O)S[C@@H]1CC2=CC(=O)CC[C@]2(C)[C@H]2CC[C@@]3(C)[C@@H](CC[C@@]34CCC(=O)O4)[C@H]12 [spironolactone] | consistently positive | variable | – |
| CCCN(CCC)CCc1cccc2c1CC(=O)N2 [ropinirole] | – | – | MDM (microbiome-derived metabolism) across donors [1]: consistently negative |
| C#C[C@]1(O)CC[C@H]2[C@@H]3CCC4=CC(=O)CC[C@@H]4[C@H]3CC[C@@]21CC [levonorgestrel] | variable | – | – |
| O=C(CCCCCCC(=O)Nc1ccccc1)NO [vorinostat] | variable | – | Pearson correlation coefficient of drug signal and sum of known metabolite signals (drug depletion vs metabolite production) [1]: −0.91 |
| CC1=C(CC(=O)O)c2cc(F)ccc2/C1=C\c1ccc([S+](C)[O-])cc1 (stereo not drawn) [sulindac] | variable | variable | – |
